Assay results reported in patent US20020026052A1, “3-cyanoquinolines, 3-cyano-1,6-naphthyridines, and 3-cyano-1,7-naphthyridines as protein kinase inhibitors” (American Home Products Corporation, priority 2000, published 2002).
Values joined by “and” are separate entries in the source; they are usually repeats but may differ in a detail not shown here. Equal values may be shown once.

Columns and labels:
[1] = molecular target: Rat2 fibroblasts stably transformed with v-Src/Hu c-Src fusion gene (Homo sapiens, UniProt P12931, cells depend on it, form not given); test: Anchorage Independent Src-transformed Fibroblast Proliferation Assay; type: cell-based, Rat; settings: suspension growth, MTS reagent on Day 5; read-out: anch-indep src-tx fib IC50
Chain of Rat2 fibroblasts stably transformed with v-Src/Hu c-Src fusion gene (P12931 whole entry, change not shown, the tested form may be a part): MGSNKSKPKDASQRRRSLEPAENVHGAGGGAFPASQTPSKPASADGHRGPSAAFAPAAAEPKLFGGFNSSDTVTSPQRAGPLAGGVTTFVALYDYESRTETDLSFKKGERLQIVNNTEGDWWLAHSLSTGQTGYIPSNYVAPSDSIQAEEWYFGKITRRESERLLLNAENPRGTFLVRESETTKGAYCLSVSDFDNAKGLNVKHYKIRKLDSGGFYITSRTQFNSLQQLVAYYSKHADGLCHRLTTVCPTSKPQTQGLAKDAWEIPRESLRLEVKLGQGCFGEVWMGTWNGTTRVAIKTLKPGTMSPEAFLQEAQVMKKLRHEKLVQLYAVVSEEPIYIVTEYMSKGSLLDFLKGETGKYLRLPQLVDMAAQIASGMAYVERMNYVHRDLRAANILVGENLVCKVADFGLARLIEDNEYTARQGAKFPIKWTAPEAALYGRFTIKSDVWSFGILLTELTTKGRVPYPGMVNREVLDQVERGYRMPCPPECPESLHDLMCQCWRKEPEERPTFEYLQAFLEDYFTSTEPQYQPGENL
Experimental: Anchorage Independent Src-transformed Fibroblast Proliferation Assay
Rat2 fibroblasts stably transformed with a plasmid containing a CMV promotor controlled v-Src/Hu c-Src fusion gene in which the catalytic domain of human c-Src was inserted in place of the v-Src catalytic domain in the v-Src gene are used for the measurement of src dependent suspension growth. […] Multiple entries for a given compound indicate that it was tested multiple times.

| Compound | melting point | GI50 [1] |
| --- | --- | --- |
| COc1cc(Nc2c(C#N)cnc3cc(-c4cc(CN5CCOCC5)c(CN5CCOCC5)s4)c(OC)cc23)c(Cl)cc1Cl [Example 82, 7-[4,5-Bis(4-morpholinylmethyl)-2-thienyl]-4-(2,4-dichloro-5-methoxyanilino)-6-methoxy-3-quinolinecarbonitrile] | 120 to 124 °C | 50 nM |
| COc1cc(Nc2c(C#N)cnc3cc(-c4ccc(C=O)cc4)ccc23)c(Cl)cc1Cl [Example 83, 4-(2,4-dichloro-5-methoxyanilino)-7-(4-formylphenyl)-3-quinolinecarbonitrile] | 248 to 251 °C | 3900 nM |
| COc1cc(Nc2c(C#N)cnc3cc(-c4ccc(CN5CCC[C@@H]5C(N)=O)cc4)ccc23)c(Cl)cc1Cl [Example 84, (2 R)-1-{4-[3-cyano-4-(2,4-dichloro-5-methoxyanilino)-7-quinolinyl]benzyl}-2-pyrrolidinecarboxamide] | 180 to 182 °C | 770 nM |
| COc1cc(Nc2c(C#N)cnc3cc(-c4ccc(CNCCS(=O)(=O)c5ccccc5)cc4)ccc23)c(Cl)cc1Cl [Example 85, 4-(2,4-dichloro-5-methoxyanilino)-7-[4-({[2-(phenylsulfonyl)ethyl)amino}methyl)phenyl]-3-quinolinecarbonitrile] | 198 to 201 °C | 10200 nM |
| COc1cc(Nc2c(C#N)cnc3cc(-c4ccc(CN(C)C)cc4)ccc23)c(Cl)cc1Cl [Example 86, 4-(2,4-dichloro-5-methoxyanilino)-7-{4-[(dimethylamino)methyl]phenyl}-3-quinolinecarbonitrile] | 187 to 189 °C | 210 nM |
| CCN(CC)Cc1ccc(-c2ccc3c(Nc4cc(OC)c(Cl)cc4Cl)c(C#N)cnc3c2)cc1 [Example 87, 4-(2,4-Dichloro-5-methoxyanilino)-7-{4-[(diethylamino)methyl]phenyl}-3-quinolinecarbonitrile] | 191 to 195 °C | 220 nM |
| COc1cc(Nc2c(C#N)cnc3cc(-c4ccc(CNCCS(C)(=O)=O)cc4)ccc23)c(Cl)cc1Cl [Example 88, 4-(2,4-dichloro-5-methoxyanilino)-7-[4-({[2-(methylsulfonyl)ethyl]amino}methyl)phenyl]-3-quinolinecarbonitrile] | 245 to 246 °C | 850 nM |
| COc1ccc(C#Cc2ccc3c(Nc4cc(OC)c(Cl)cc4Cl)c(C#N)cnc3c2)cc1 [Example 90, 4-(2,4-dichloro-5-methoxyanilino)-7-[2-(4-methoxyphenyl)ethynyl]-3-quinolinecarbonitrile] | 225 to 226 °C | > 10000 nM |
| COc1cc(Nc2c(C#N)cnc3cc(-n4cccc4)ccc23)c(Cl)cc1Cl [Example 92, 4-(2,4-Dichloro-5-methoxyanilino)-7-pyrrol-1-yl-3-quinolinecarbonitrile] | 205 to 207 °C | 2110 nM |
| COc1cc(Nc2c(C#N)cnc3cc(-c4ccc(CO)cc4)ccc23)c(Cl)cc1Cl [Example 101, 4-(2,4-Dichloro-5-methoxyanilino)-7-[4-(hydroxymethyl)phenyl]-3-quinolinecarbonitrile] | 264 to 267 °C | > 10000 nM |
| COc1cc(Nc2c(C#N)cnc3cc(-c4ccc(CCl)cc4)ccc23)c(Cl)cc1Cl [Example 102, 7-[4-(Chloromethyl)phenyl]-4-(2,4-dichloro-5-methoxyanilino)-3-quinolinecarbonitrile] | 236 to 239 °C | 7500 nM |
| COc1cc(Nc2c(C#N)cnc3cc(-c4ncccc4CN4CCOCC4)ccc23)c(Cl)cc1Cl [Example 111, 4-(2,4-Dichloro-5-methoxyanilino)-7-[3-(morpholin-4-ylmethyl)-pyridin-2-yl]-3-quinolinecarbonitrile] | 151 to 154 °C | > 10000 nM |
| COc1cc(Nc2c(C#N)cnc3cc(-c4cccc5ccccc45)ccc23)c(Cl)cc1Cl [Example 116, 4-(2,4-Dichloro-5-methoxyanilino)-7-(1-naphthyl)-3-quinolinecarbonitrile] | 192 to 193 °C | > 10000 nM |
| COc1cc(Nc2c(C#N)cnc3cc(-c4ccc5ccccc5c4)ccc23)c(Cl)cc1Cl [Example 117, 4-(2,4-Dichloro-5-methoxyanilino)-7-(2-naphthyl)-3-quinolinecarbonitrile] | 243 to 244 °C | 6900 nM |
| COc1cc(Nc2c(C#N)cnc3cc(-c4cccc(NC(C)=O)c4)ccc23)c(Cl)cc1Cl [Example 118, N-{3-[3-Cyano-4-(2,4-dichloro-5-methoxyanilino)-7-quinolinyl]phenyl}acetamide] | 262 to 263 °C | 3000 nM |
| COc1cc(Nc2c(C#N)cnc3cc(-c4cc5ccccc5o4)ccc23)c(Cl)cc1Cl [Example 119, 7-(1-Benzofuran-2-yl)-4-(2,4-dichloro-5-methoxyanilino)-3-quinolinecarbonitrile] | 276 to 277 °C | > 10000 nM |

| Compound | melting point | GI50 [1] |
| --- | --- | --- |
| COc1cc(Nc2c(C#N)cnc3cc(-c4ccc(C(=O)O)cc4)ccc23)c(Cl)cc1Cl [Example 121, 4-[3-Cyano-4-(2,4-dichloro-5-methoxyanilino)-7-quinolinyl]benzoic acid] | 282 to 283 °C | > 10000 nM |
| COc1ccc(Cl)c(Nc2c(C#N)cnc3cc(-c4csc(CN5CCOCC5)c4)ccc23)c1 [Example 131, 4-(2-Chloro-5-methoxyanilino)-7-[5-(4-morpholinylmethyl)-3-thienyl]-3-quinolinecarbonitrie] | 110 to 115 °C | 90 nM |
| COc1cc(Nc2c(C#N)cnc3cc(-c4ccc(CN5CCOCC5)c(CN5CCOCC5)c4)ccc23)c(Cl)cc1C [Example 133, 7-[3 ,4-Bis(4-morpholinylmethyl)phenyl]-4-(2-chloro-5-methoxy-4-methylanilino)-3-quinolinecarbonitrile] | 186 to 188 °C | 730 nM |
| COc1cc(Nc2c(C#N)cnc3cc(C#Cc4ccc(C)cc4)ccc23)c(Cl)cc1Cl [Example 141, 4-(2,4-Dichloro-5-methoxyanilino)-7-[2-(4-methylphenyl)ethynyl]-3-quinolinecarbonitrile] | 223 to 225 °C | > 10000 nM |
| COc1cc(Nc2c(C#N)cnc3cc(/C=C/C(=O)OC(C)(C)C)ccc23)c(Cl)cc1Cl [Example 142, (E)-tert-Butyl 3-[3-cyano-4-(2,4-dichloro-5-methoxyanilino)-7-quinolinyl]-2-propenoate] | 203 to 204 °C | > 10000 nM |
| COc1cc(Nc2c(C#N)cnc3cc(C#CCO)ccc23)c(Cl)cc1Cl [Example 143, 4-(2,4-Dichloro-5-methoxyanilino)-7-(3-hydroxy-1-propynyl)-3-quinolinecarbonitrile] | 245 °C (dec.) | > 10000 nM |
| CCOC(=O)CC1CCN(Cc2ccc(-c3ccc4c(Nc5cc(OC)c(Cl)cc5Cl)c(C#N)cnc4c3)cc2)CC1 [Example 144, Ethyl (1-{4-[3-cyano-4-(2,4-dichloro-5-methoxyanilino)-7-quinolinyl]benzyl}-4-piperidinyl) acetate] | 142 to 144 °C | 92 nM |
| CCOC(=O)C1CCCCN1Cc1ccc(-c2ccc3c(Nc4cc(OC)c(Cl)cc4Cl)c(C#N)cnc3c2)cc1 (centres unmarked) [Example 145, Ethyl 1-{4-[3-cyano-4-(2,4-dichloro-5-methoxyanilino)-7-quinolinyl]benzyl}-2-piperidinecarboxylate] | 78 to 80 °C | > 10000 nM |
| COc1cc(Nc2c(C#N)cnc3cc(-c4ccc(CN5CCCCC5C(=O)O)cc4)ccc23)c(Cl)cc1Cl (centres unmarked) [Example 147, 1-{4-[3-Cyano-4-(2,4-dichloro-5-methoxyanilino)-7-quinolinyl]benzyl}-2-piperidinecarboxylic acid] | 230 °C (dec.) | 4600 nM |
| CCOC(=O)C1CCCN(Cc2ccc(-c3ccc4c(Nc5cc(OC)c(Cl)cc5Cl)c(C#N)cnc4c3)cc2)C1 (centres unmarked) [Example 148, Ethyl 1-(4-{3-cyano-4-[(2,4-dichloro-5-methoxyphenyl)amino]-7-quinolinyl}benzyl)-3-piperidinecarboxylate] | 67 to 70 °C | 2100 nM |
| COc1cc(Nc2c(C#N)cnc3cc(-c4ccc(CN5CCCC(C(=O)O)C5)cc4)ccc23)c(Cl)cc1Cl (centres unmarked) [Example 149, 1-(4-{3-Cyano-4-[(2,4-dichloro-5-methoxyphenyl)amino]-7-quinolinyl}benzyl)-3-piperidinecarboxylic acid] | 235 °C (dec.) | 2500 nM |
| COc1cc(Nc2c(C#N)cnc3cc(-c4ccc(CN5CCS(=O)(=O)CC5)cc4)ccc23)c(Cl)cc1Cl [Example 150, 4-[(2,4-Dichloro-5-methoxyphenyl)amino]-7-{4-[(1,1-dioxido-4-thiomorpholinyl)methyl]phenyl}-3-quinolinecarbonitrile] | 248 to 251 °C | 500 nM and 520 nM |
| COc1cc(Nc2c(C#N)cnc3cc(C#CCCl)ccc23)c(Cl)cc1Cl [Example 152, 7-(3-Chloro-1-propynyl)-4-[(2,4-dichloro-5-methoxyphenyl)amino]-3-quinolinecarbonitrile] | 215 to 217 °C | 4800 nM and 3800 nM |
| COc1cc(Nc2c(C#N)cnc3cc(-c4ccc(CN5CCSCC5)cc4)ccc23)c(Cl)cc1Cl [Example 153, 4-[(2,4-Dichloro-5-methoxyphenyl)amino]-7-[4-(4-thiomorpholinylmethyl)phenyl]-3-quinolinecarbonitrile] | 216 to 219 °C | 2800 nM and 2700 nM |
| COc1cc(Nc2c(C#N)cnc3cc(-c4ccc(CO)n4C)ccc23)c(Cl)cc1Cl [Example 162, 4-(2,4-Dichloro-5-methoxyanilino)-7-[5-(hydroxymethyl)-1-methyl-lH-pyrrol-2-yl]-3-quinolinecarbonitrile] | 175 °C (dec.) | > 10000 nM |
